# Like-named read-outs stand apart in the source and are kept apart here.
# Experiments:
# [1] = target: T1, AHR (AHR^b isoform) (Mus musculus, UniProt P30561, M589L/N533S/P471L); assay: Photoaffinity competitive ligand binding with radioligand 125Ibr2N3DpD in hepatic cytosol; design: species or system mouse (C57BL/6J)
# T1 construct: from tissue; host or cells: liver of C57BL/6J mice (cytosol in A1; liver in vivo in A7)
# [2] = target: T2, AHR^d (Mus musculus, UniProt P30561, A375V); assay: Hepatic microsomal EROD activity after oral dosing, DBA/2J mice; type: in vivo, mouse (DBA/2J); design: from tissue; host or cells: liver of DBA/2J mice dosed orally; conditions: oral SU5416 30, 80, 120 mg/kg; BNF 120 mg/kg, after 48 hours
# [3] = target: murine AHR^d low affinity receptor (Mus musculus, UniProt P30561, A375V); assay: EROD activity in AHR^d-15 cells (rat hepatoma BP8 expressing murine AHR^d)
# [4] = target: T3, high affinity AHR isoform (Rattus norvegicus, UniProt P41738)
# T3 sequence (P41738 10-853): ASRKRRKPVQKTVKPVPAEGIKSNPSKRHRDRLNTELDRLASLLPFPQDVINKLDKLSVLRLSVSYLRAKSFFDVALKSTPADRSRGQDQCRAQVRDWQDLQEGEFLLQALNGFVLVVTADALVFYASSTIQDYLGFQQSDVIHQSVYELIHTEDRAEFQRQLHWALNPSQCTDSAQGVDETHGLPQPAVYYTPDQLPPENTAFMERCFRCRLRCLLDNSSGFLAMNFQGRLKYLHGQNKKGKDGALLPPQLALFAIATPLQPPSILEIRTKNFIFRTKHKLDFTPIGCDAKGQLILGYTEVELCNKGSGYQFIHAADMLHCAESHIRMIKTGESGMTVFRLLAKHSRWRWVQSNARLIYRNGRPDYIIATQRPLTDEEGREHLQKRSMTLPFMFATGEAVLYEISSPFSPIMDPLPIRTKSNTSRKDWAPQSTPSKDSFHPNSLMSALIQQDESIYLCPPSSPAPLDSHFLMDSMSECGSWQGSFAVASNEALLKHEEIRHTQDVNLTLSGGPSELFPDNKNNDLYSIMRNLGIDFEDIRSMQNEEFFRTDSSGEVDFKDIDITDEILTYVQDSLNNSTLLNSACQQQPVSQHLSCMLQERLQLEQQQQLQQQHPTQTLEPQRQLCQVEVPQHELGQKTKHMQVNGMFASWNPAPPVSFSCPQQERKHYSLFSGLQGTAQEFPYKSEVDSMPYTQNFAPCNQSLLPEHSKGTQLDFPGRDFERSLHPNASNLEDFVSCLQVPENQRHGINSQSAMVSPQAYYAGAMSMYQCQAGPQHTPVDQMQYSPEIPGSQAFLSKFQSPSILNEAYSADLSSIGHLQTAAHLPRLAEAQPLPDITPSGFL
# [5] = test system: EAE; conditions: mouse, in vivo; cited from earlier work
# [6] = test system: AHR; assay: Antagonism by CH223191 of DRE-driven luciferase activation
# [7] = test system: naive T cells; assay: Naive T cells in Th17 conditions, IL-17 ELISA of supernatant; conditions: 3 days
# [8] = metastatic colorectal cancers; cited from earlier work
# [9] = test system: AHR^fxneo/fxneo mice; assay: In utero exposure, closure of ductus venosus (DV) in AHR hypomorph mice; conditions: single dose 110 mg/kg i.p. to dams at E18.5; AHR^fxneo/fxneo pups at 4 weeks
# [10] = test system: LPS-induced airway inflammation; conditions: mouse, in vivo; cited from earlier work
# [11] = test system: IDO; assay: IDO mRNA in cultured splenocytes; type: cell-based, mouse; conditions: titrating doses, 4 hours
# [12] = test system: skin graft rejection; conditions: 2 doses of 50 mg/kg, 2 and 5 days after skin grafting
# [13] = in vivo; cited from earlier work
# [14] = test system: pDC/T cell coculture; assay: pDC/T cell co-culture, IDO and FoxP3 mRNA; type: cell-based, mouse; conditions: 5 days; SU5416 500 nM, TCDD 10 nM
# [15] = test system: naive T cells; assay: Naive CD4+ T cells with TGF-β, flow cytometry for FoxP3 and CD39; conditions: TGF-β 2 ng/ml with SU5416 250 nM, day 3
# [16] = target: T4, wild-type AHR (AHR^b) (Mus musculus, UniProt P30561, M589L/N533S/P471L); assay: DRE-luciferase in COS-1 cells transfected with wild-type mAHR
# T4 sequence (P30561 10-805 P471L/N533S/M589L): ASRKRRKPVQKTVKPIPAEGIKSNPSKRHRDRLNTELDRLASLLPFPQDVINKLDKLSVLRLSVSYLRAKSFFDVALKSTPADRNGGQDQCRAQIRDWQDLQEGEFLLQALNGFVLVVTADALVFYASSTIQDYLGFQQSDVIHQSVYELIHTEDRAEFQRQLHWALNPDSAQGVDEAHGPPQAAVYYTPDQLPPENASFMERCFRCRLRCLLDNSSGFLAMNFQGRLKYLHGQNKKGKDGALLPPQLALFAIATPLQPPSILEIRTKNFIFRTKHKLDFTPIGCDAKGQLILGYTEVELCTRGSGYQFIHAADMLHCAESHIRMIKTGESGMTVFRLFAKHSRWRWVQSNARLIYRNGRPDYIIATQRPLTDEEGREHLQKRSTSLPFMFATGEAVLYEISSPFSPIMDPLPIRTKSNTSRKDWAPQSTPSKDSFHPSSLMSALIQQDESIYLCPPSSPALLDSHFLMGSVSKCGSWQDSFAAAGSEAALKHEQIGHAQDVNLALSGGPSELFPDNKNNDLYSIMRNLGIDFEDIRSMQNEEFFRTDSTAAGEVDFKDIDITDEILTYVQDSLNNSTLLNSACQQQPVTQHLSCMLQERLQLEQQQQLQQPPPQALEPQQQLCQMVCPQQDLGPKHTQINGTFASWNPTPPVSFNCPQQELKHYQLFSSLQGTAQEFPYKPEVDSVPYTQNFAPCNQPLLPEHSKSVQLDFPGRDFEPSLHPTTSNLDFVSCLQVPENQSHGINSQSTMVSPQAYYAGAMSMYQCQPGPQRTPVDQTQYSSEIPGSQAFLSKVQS
# [17] = target: T2, AHR^d; assay: CYP1A1 mRNA (qPCR) in splenocytes of AHR^d congenic mice
# [18] = test system: AHR
# [19] = target: T2, AHR^d; design: endogenous in cells; host or cells: primary splenocytes of AHR^d congenic mice; conditions: cited from earlier work
# [20] = target: T5, AHR A375V (valine point mutation, AHR^d type) (Mus musculus, UniProt P30561, A375V); assay: DRE-luciferase in COS-1 cells transfected with mAHR-A375V; conditions: read-out: EC50, DRE-luciferase; A375V transfected COS-1 cells, 4 hours
# T5 sequence (P30561 10-848 A375V): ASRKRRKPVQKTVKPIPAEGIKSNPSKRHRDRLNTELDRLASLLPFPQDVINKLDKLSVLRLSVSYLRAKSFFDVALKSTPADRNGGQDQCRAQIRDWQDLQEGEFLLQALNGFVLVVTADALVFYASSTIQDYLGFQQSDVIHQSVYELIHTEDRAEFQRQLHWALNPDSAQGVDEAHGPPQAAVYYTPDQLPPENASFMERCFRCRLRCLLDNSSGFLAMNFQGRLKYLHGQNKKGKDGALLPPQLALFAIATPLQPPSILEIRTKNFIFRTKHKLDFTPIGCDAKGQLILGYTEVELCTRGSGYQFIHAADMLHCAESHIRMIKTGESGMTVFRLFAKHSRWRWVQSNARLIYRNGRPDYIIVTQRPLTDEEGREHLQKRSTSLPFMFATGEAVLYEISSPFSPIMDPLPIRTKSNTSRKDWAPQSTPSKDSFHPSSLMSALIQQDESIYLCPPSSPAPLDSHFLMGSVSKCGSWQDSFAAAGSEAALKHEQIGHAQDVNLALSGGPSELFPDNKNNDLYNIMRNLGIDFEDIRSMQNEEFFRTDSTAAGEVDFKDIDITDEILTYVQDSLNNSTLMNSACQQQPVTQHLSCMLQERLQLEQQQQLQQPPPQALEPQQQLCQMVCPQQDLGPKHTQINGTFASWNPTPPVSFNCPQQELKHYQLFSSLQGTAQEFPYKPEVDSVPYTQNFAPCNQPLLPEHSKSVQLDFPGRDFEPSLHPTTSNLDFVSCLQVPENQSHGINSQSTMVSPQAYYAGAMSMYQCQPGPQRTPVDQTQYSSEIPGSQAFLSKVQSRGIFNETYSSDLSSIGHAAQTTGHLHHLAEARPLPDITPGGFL
# [21] = test system: AHR^fxneo/fxneo mice; conditions: mouse, in vivo; cited from earlier work
# [22] = target: AHR^b (Mus musculus, UniProt P30561, M589L/N533S/P471L); assay: CYP1A1 mRNA (qPCR) in splenocytes of wild-type C57BL/6J mice
# Sequence of AHR^b (P11499 whole entry partner, one chain of several): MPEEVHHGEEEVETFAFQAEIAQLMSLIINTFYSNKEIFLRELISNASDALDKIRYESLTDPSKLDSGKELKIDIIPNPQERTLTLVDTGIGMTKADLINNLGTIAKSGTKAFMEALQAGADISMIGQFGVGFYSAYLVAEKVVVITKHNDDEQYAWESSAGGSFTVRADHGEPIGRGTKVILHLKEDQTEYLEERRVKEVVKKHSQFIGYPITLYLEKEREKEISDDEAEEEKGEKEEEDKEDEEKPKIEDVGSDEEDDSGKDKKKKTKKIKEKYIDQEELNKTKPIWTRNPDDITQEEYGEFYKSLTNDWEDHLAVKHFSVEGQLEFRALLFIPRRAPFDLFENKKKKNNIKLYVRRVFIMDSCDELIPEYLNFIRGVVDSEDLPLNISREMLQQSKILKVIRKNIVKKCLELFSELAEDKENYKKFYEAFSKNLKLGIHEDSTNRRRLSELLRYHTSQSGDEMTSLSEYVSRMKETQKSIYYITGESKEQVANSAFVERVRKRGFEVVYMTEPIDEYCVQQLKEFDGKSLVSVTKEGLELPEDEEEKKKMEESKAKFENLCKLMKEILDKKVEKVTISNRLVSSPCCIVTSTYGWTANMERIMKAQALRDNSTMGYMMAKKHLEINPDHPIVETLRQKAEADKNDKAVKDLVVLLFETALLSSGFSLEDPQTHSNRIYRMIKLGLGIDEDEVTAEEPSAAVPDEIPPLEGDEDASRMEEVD
# T1 sequence (P11499 whole entry partner, one chain of several, canonical isoform): as the sequence (P11499 whole entry partner, one chain of several) above
# T2 sequence (P11499 whole entry partner, one chain of several): as above
# Sequence of murine AHR^d low affinity receptor (P34058 whole entry partner, one chain of several, canonical isoform): as the sequence (P11499 whole entry partner, one chain of several) above
compound,measurement,setting,value
"c1ccc2cc3c(ccc4ccccc43)cc2c1 [1,2-Benzanthracene]",IC50,"[1]; C57BL/6J hepatic cytosol, 1 nM radioligand, read-out: IC50, competitive binding",13.7 nM
"O=c1cc(-c2ccccc2)oc2ccc3ccccc3c12 [BNF, β-naphthoflavone]",hepatic EROD activity,[2],dramatically decreased in vivo activity
same,IC50,[1],2.8 nM
same,EROD response in AHR^d-15 cells,[3]; doses as high as 10 uM,no response
same,EROD response in 5L cell line,[4],strong response
"O=Cc1c2[nH]c3ccccc3c2cc2[nH]c3ccccc3c12 [FICZ, formylindolo[3,2-b]carbazole]",effect on EAE,[5],aggravates this syndrome
"Cc1cc(C)c(/C=C2\C(=O)Nc3ccccc32)[nH]1 [SU5416, 3-[(2,4-dimethylpyrrol-5-yl)methylidenyl]-indolin-2-one]",inhibition of DRE activation by titrated CH223191,[6],minimal inhibition
same,IL-17 protein in supernatant,[7]; higher doses,did not see this effect
same,IL-17 protein in supernatant,[7]; low doses,small increase in IL-17 protein
same,tolerability in clinical trials,[8],well tolerated
same,pups with closed DV,[9],13 of 22
same,effect on LPS-induced airway inflammation,[10],blocked LPS-induced airway inflammation
same,IDO mRNA induction,[11],induced significant amounts of IDO mRNA
same,skin graft survival,[12],prolonged graft survival compared to the control group
same,plasma half-life,[13],30 min
same,FoxP3 mRNA in pDC/T cell coculture,[14],generated
same,IDO mRNA in pDC/T cell coculture,[14],generated
same,effect on EAE,[5],abrogate EAE
same,CD39 expression,[15],up regulated CD39 in the FoxP3^+ T cells
same,FoxP3 protein expression by flow cytometry,[15],significantly enhanced the FoxP3 protein expression
"Clc1cc2c(cc1Cl)Oc1cc(Cl)c(Cl)cc1O2 [TCDD, 2,3,7,8-tetrachlorodibenzo-p-dioxin]",EC50,[16],0.73 nM
same,inhibition of DRE activation by titrated CH223191,"[6]; 1 nM TCDD or 100 nM SU5416, 4 hours",inhibited
same,EC50,[17],1.89 nM
same,"total fold change of CYP1A1, AHR^b versus AHR^d","[17]; splenocytes, qPCR, 4 hours",more CYP1A1 in AHR^b compared to AHR^d mice
same,duration of luciferase (DRE) activity,[18],long duration DRE-binding
same,binding affinity of AHR^d relative to AHR^b,[19],one-fifteenth to one-twentieth
same,IC50,[1],1.5 nM
same,shift of EROD dose curve between AHR^b (5L) and AHR^d-15,[3]; to the left for the AHR^b isoform,1.5 orders of magnitude
same,EC50,[20],2.47 nM
same,FoxP3 mRNA in pDC/T cell coculture,[14],up regulation was also seen
same,IDO mRNA in pDC/T cell coculture,[14],up regulation was also seen
same,closure of DV by in utero activation in hypomorphs,[21],successfully closed the DV
same,EC50,[22],0.461 nM
same,effect on EAE,[5],ameliorate the symptoms
